# Key:
# Assay in all cases: relative viability (nuclei count vs DMSO), 5 days (fraction); higher = more cells survive
# [1] = compound: C[C@@H](N)c1ccc(C(=O)Nc2ccnc3[nH]ccc23)cc1 + N=C(N)NC(=N)NCCc1ccccc1 [Phenformin] (partner 250 µM)
# Summary of the method: (§1)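 After 5 days of treatment, lung cancer cells in 1536-well plates were fixed and stained in a single step (final 0.05% Triton X-100, 1% formaldehyde, 1 ug/ml Hoechst) and their nuclei counted on 4× images. Treatment had been applied by pin tool the day after seeding as one drug alone or as a fixed anchor-drug dose with five library-drug doses (not always all listed) in √10 steps. Relative viability is the nuclei count of treated wells divided by that of vehicle wells, and values are medians of duplicate plates.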
# [2] = compound: C[C@@H](N)c1ccc(C(=O)Nc2ccnc3[nH]ccc23)cc1 + C[C@@H](Oc1cc(-c2cnn(C3CCNCC3)c2)cnc1N)c1c(Cl)ccc(F)c1Cl [Crizotinib] (partner 1 µM)
# Summary of the method: as §1
# Tanzisertib + Tozasertib = compound: O[C@H]1CC[C@H](Nc2ncc3nc(Nc4c(F)cc(F)cc4F)n([C@H]4CCOC4)c3n2)CC1 [Tanzisertib] + Cc1cc(Nc2cc(N3CCN(C)CC3)nc(Sc3ccc(NC(=O)C4CC4)cc3)n2)n[nH]1 [Tozasertib] (partner 0.1 µM)
# Summary of the method: as §1
# [3] = compound: C1CNCCC1C2=CC(=NN2)C3=CC=NC=C3 + N=C(N)NC(=N)NCCc1ccccc1 [Phenformin] (partner 250 µM)
# Summary of the method: as §1
Cell Line,relative viability ([1]; first compound 0.04 µM),relative viability ([1]; first compound 0.1265 µM),relative viability ([1]; first compound 0.4 µM),relative viability ([1]; first compound 1.265 µM),relative viability ([1]; first compound 4 µM),relative viability ([2]; first compound 0.04 µM),relative viability ([2]; first compound 0.1265 µM),relative viability ([2]; first compound 0.4 µM),relative viability ([2]; first compound 1.265 µM),relative viability ([2]; first compound 4 µM),relative viability (Tanzisertib + Tozasertib; first compound 0.08 µM),relative viability (Tanzisertib + Tozasertib; first compound 0.253 µM),relative viability (Tanzisertib + Tozasertib; first compound 0.8 µM),relative viability (Tanzisertib + Tozasertib; first compound 2.53 µM),relative viability (Tanzisertib + Tozasertib; first compound 8 µM),relative viability ([3]; first compound 0.08 µM),relative viability ([3]; first compound 0.8 µM),relative viability ([3]; first compound 2.53 µM),relative viability ([3]; first compound 8 µM)
NCI-H727,0.583,0.653,0.669,0.748,0.756,1.04,1,1.21,1.19,0.842,0.702,0.714,0.699,0.663,0.66,0.529,0.468,0.619,0.631
COR-L23,0.44,0.526,0.442,0.28,0.277,0.64,0.741,0.647,0.412,0.17,0.201,0.228,0.184,0.189,0.121,0.429,0.465,0.469,0.431
ChaGo-K-1,0.495,0.493,0.46,0.346,0.507,1.07,1.17,1.1,–,0.846,0.251,0.227,0.216,0.218,0.217,0.458,0.527,0.462,0.462
HOP-62,0.607,0.609,0.636,0.552,0.607,0.685,0.798,0.908,0.853,0.709,0.428,0.433,0.356,0.382,0.375,0.602,0.844,0.756,0.621
NCI-H1915,0.289,0.37,0.38,–,0.319,0.911,0.886,0.929,–,0.81,0.401,0.457,0.373,0.384,0.322,0.376,0.389,0.346,0.377
BEN,0.279,0.265,0.258,0.267,0.248,0.952,0.828,0.918,1.09,0.675,0.464,0.451,0.621,0.418,0.407,0.312,0.172,0.243,0.271
NCI-H1437,0.335,0.346,0.35,0.324,0.336,0.915,0.851,0.943,1.01,0.792,0.451,0.394,0.407,0.381,0.384,0.34,0.313,0.298,0.299
EMC-BAC-2,0.41,0.553,0.469,0.404,0.409,0.806,0.793,0.707,0.764,0.655,0.268,0.275,0.262,0.277,0.277,0.499,0.609,0.661,0.552
NCI-H647,0.443,0.488,0.516,0.476,0.51,1.09,0.98,1.02,0.882,0.692,0.283,0.269,0.281,0.388,0.226,0.44,0.487,0.52,0.533
LXF-289,0.509,0.524,0.525,0.569,0.496,0.846,0.784,0.883,0.915,0.715,0.236,0.165,0.149,0.17,0.147,0.449,0.48,0.533,0.496
LOU-NH91,0.589,0.628,0.672,0.28,0.646,0.691,0.727,0.691,0.668,0.635,0.778,0.683,0.681,0.652,0.596,0.771,0.787,0.867,0.781
NCI-H23,0.744,0.798,0.85,–,0.732,0.589,0.571,0.619,–,0.511,0.369,0.362,0.306,0.29,0.293,0.722,0.894,0.828,0.847
NCI-H1993,0.597,0.501,0.528,0.502,0.547,0.867,0.743,–,0.877,0.878,0.614,0.593,0.592,0.617,0.548,0.497,0.488,0.547,0.533
HCC-827,0.424,0.462,0.423,0.394,0.406,0.928,0.957,0.925,0.941,0.795,0.432,0.449,0.354,0.353,0.3,0.375,0.392,0.414,0.358
NCI-H650,–,0.424,0.46,0.203,0.411,0.66,0.639,0.745,–,0.587,0.761,0.796,0.776,0.768,0.65,0.5,0.451,0.473,0.46
CAL-12T,0.674,0.609,0.665,0.538,0.56,0.795,0.78,0.845,0.529,0.252,0.361,0.409,0.307,0.264,0.266,0.598,0.663,0.654,0.616
NCI-H838,0.378,0.527,0.501,0.247,0.221,0.835,0.778,0.638,0.431,0.316,0.317,0.283,0.301,0.249,0.237,0.605,0.546,0.577,0.563
